For assay [1], the system named is mexB (PA) strain. As to the kind of experiment: Combinational effect with antibacterial agent against Pseudomonas aeruginosa (Test Examples 2 and 4): mexB (PA) strain with LVFX, TC or AZT at 1/4 MIC, EC99. The conditions noted are these: for EC99, combinational effect with AZT, mexB (PA) / EC99, combinational effect with LVFX, mexB (PA) / EC99, combinational effect with TC, mexB (PA): mexB (PA) strain, Test Example 4; for EC99, combinational effect with AZT, mexB (PA) / EC99, mexB (PA), AZT: combined with AZT at 1/4 MIC; for EC99, combinational effect with LVFX, mexB (PA) / EC99, mexB (PA), LVFX: combined with LVFX at 1/4 MIC; for EC99, combinational effect with TC, mexB (PA) / EC99, mexB (PA), TC: combined with TC at 1/4 MIC; for EC99, mexB (PA), AZT / EC99, mexB (PA), LVFX / EC99, mexB (PA), TC: Table 52, Test Example 2, 16 to 20 hours culture, OD595. It counts as cell-based. In short, it runs like this:
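P. aeruginosa mexB (PA) strain, lacking MexCD-OprJ, MexEF-OprN and MexXY and overexpressing MexAB-OprM, grown 16–20 h in CAMHB (10^4–5 CFU/well) with LVFX, TC or AZT at ¼ MIC plus test compound at 0–800 μM. Growth read as OD595; EC99 is the lowest compound concentration giving ≥99% growth inhibition.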

Assay [2] concerns S-3769 strain. As to the kind of experiment: Combinational effect with antibacterial agent against Pseudomonas aeruginosa (Test Examples 2 and 4): S-3769 strain with AMK or GM at 1/4 MIC, EC99. It is filed as cell-based. The note with it: for EC99, combinational effect with AMK, S-3769 strain / EC99, S-3769 strain, AMK: combined with AMK at 1/4 MIC; for EC99, combinational effect with AMK, S-3769 strain / EC99, combinational effect with GM, S-3769 strain: Test Example 4; for EC99, combinational effect with GM, S-3769 strain / EC99, S-3769 strain, GM: combined with GM at 1/4 MIC; for EC99, S-3769 strain, AMK / EC99, S-3769 strain, GM: Table 52, Test Example 2, 16 to 20 hours culture, OD595. In short, it runs like this: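 P. aeruginosa S-3769 (clinical isolate, MexY overexpressed) grown 16–20 h in CAMHB, 10^4 to 5 CFU/well, with AMK or GM at ¼ MIC plus test compound 0–800 μM. Growth read as OD595; EC99 is the lowest compound concentration giving ≥99% growth inhibition.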

From patent US20250326744A1, “PIPERAZINE DERIVATIVE OR SALT THEREOF, AND PHARMACEUTICAL COMPOSITION” (priority 2022, published 2025) come the findings set out here.

Counter-ions that a name gives are not always drawn.

With `CCc1ccccc1CN1CCN(C(=O)[C@H](N)C2CCN(CCc3cc(Cl)ccc3-c3ccccc3)CC2)CC1` [Example 505, Hydrobromide of (R)-2-amino-2-(1-(2-(4-chloro-[1,1-biphenyl]-2-yl)ethyl)piperidin-4-yl)-1-(4-(2-ethylbenzyl)piperazin-1-yl)ethan-1-one], in assay [1], the “EC99, combinational effect with AZT, mexB (PA)” value (shortened to “EC99 … with AZT, mexB (PA)”) is listed as “B (25 μM<EC99≤100 μM)”; the “EC99, combinational effect with LVFX, mexB (PA)” value (“EC99 … with LVFX, mexB (PA)” for short) is on record as “B (25 μM<EC99≤100 μM)”; the “EC99, combinational effect with TC, mexB (PA)” value (“EC99 … with TC, mexB (PA)” for short) is recorded as “B (25 μM<EC99≤100 μM)”. Besides, in assay [2], the “EC99, combinational effect with AMK, S-3769 strain” value (shortened to “EC99, combinational effect with AMK”) is listed as “B (25 μM<EC99≤100 μM)” and the “EC99, combinational effect with GM, S-3769 strain” value (shortened to “EC99, combinational effect with GM”) is “B (25 μM<EC99≤100 μM)”.

With `N[C@@H](C(=O)N1CCN(Cc2cccc3c2CCN3)CC1)C1CCN(CCc2cc(Cl)ccc2-c2ccccc2)CC1` [Example 513, Hydrobromide of (R)-2-amino-2-(1-(2-(4-chloro-[1,1-biphenyl]-2-yl)ethyl)piperidin-4-yl)-1-(4-(indolin-4-ylmethyl)piperazin-1-yl)ethan-1-one], in assay [1], the “EC99 … with AZT, mexB (PA)” value is “B (25 μM<EC99≤100 μM)”; the “EC99 … with LVFX, mexB (PA)” value is given as “B (25 μM<EC99≤100 μM)”; the “EC99 … with TC, mexB (PA)” value was “B (25 μM<EC99≤100 μM)”. Also, in assay [2], the “EC99, combinational effect with AMK” value was “B (25 μM<EC99≤100 μM)” and the “EC99, combinational effect with GM” value is given as “B (25 μM<EC99≤100 μM)”.

`CSc1ccccc1CN1CCN(C(=O)[C@H](N)C2CCN(CCc3cc(Cl)ccc3-c3cc(O)ccc3Cl)CC2)CC1` [Example 618, (R)-2-amino-2-(1-(2-(2′,4-dichloro-5′-hydroxy-[1,1′-biphenyl]-2-yl)ethyl)piperidin-4-yl)-1-(4-(2-(methylthio)benzyl)piperazin-1-yl)ethan-1-one]: in assay [1], the “EC99 … with AZT, mexB (PA)” value is reported as “S (EC99≤12.5 μM)”; the “EC99 … with LVFX, mexB (PA)” value is reported as “S (EC99≤12.5 μM)”; the “EC99 … with TC, mexB (PA)” value was “S (EC99≤12.5 μM)”. Further, in assay [2], the “EC99, combinational effect with AMK” value was “S (EC99≤12.5 μM)” and the “EC99, combinational effect with GM” value is recorded as “S (EC99≤12.5 μM)”.

With `CCOc1cccc(F)c1CN1CCN(C(=O)[C@H](N)C2CCN(CCc3c(Cl)cccc3-c3ccccc3)CC2)CC1` [Example 53, Hydrobromide of (R)-2-amino-2-(1-(2-(3-chloro-[1,1′-biphenyl]-2-yl)ethyl)piperidin-4-yl)-1-(4-(2-ethoxy-6-fluorobenzyl)piperazin-1-yl)ethan-1-one], in assay [1], the “EC99, mexB (PA), AZT” value was “B (25 μM<EC99≤100 μM)”; the “EC99, mexB (PA), LVFX” value is given as “B (25 μM<EC99≤100 μM)”; the “EC99, mexB (PA), TC” value is on record as “B (25 μM<EC99≤100 μM)”. Besides, in assay [2], the “EC99, S-3769 strain, AMK” value is on record as “S (EC99≤12.5 μM)” and the “EC99, S-3769 strain, GM” value is given as “S (EC99≤12.5 μM)”.

As for `CCSc1cc(F)ccc1CN1CCN(C(=O)[C@H](N)C2CCN(CCc3cc(Cl)ccc3-c3cc(O)ccc3F)CC2)CC1` [Example 615, (R)-2-amino-2-(1-(2-(4-chloro-2′-fluoro-5′-hydroxy-[1,1′-biphenyl]-2-yl)ethyl)piperidin-4-yl)-1-(4-(2-(ethylthio)-4-fluorobenzyl)piperazin-1-yl)ethan-1-one], in assay [1], the “EC99 … with AZT, mexB (PA)” value is “S (EC99≤12.5 μM)”; the “EC99 … with LVFX, mexB (PA)” value is “S (EC99≤12.5 μM)”; the “EC99 … with TC, mexB (PA)” value is recorded as “S (EC99≤12.5 μM)”. Besides, in assay [2], the “EC99, combinational effect with AMK” value is on record as “S (EC99≤12.5 μM)” and the “EC99, combinational effect with GM” value is on record as “S (EC99≤12.5 μM)”.

Consider `CCSc1cc(F)ccc1CN1CCN(C(=O)[C@H](N)C2CCN(CCc3cc(Cl)ccc3-c3ccccc3N)CC2)CC1` [Example 604, Hydrochloride of (R)-2-amino-2-(1-(2-(2′-amino-4-chloro-[1,1-biphenyl]-2-yl)ethyl)piperidin-4-yl)-1-(4-(2-(ethylthio)-4-fluorobenzyl)piperazin-1-yl) ethan-1-one], for which, in assay [1], the “EC99 … with AZT, mexB (PA)” value is given as “S (EC99≤12.5 μM)”; the “EC99 … with LVFX, mexB (PA)” value is “S (EC99≤12.5 μM)”; the “EC99 … with TC, mexB (PA)” value is reported as “S (EC99≤12.5 μM)”. Besides, in assay [2], the “EC99, combinational effect with AMK” value is “A (12.5 μM<EC99≤25 μM)” and the “EC99, combinational effect with GM” value was “A (12.5 μM<EC99≤25 μM)”.

On to `CSc1cccc(Cl)c1CN1CCN(C(=O)[C@H](N)C2CCN(CCc3cc(Cl)ccc3-c3ccccc3)CC2)CC1` [Example 532, Hydrobromide of (R)-2-amino-1-(4-(2-chloro-6-(methylthio)benzyl)piperazin-1-yl)-2-(1-(2-(4-chloro-[1,1-biphenyl]-2-yl)ethyl)piperidin-4-yl)ethan-1-one], for which, in assay [1], the “EC99 … with AZT, mexB (PA)” value is listed as “B (25 μM<EC99≤100 μM)”; the “EC99 … with LVFX, mexB (PA)” value is “B (25 μM<EC99≤100 μM)”; the “EC99 … with TC, mexB (PA)” value was “B (25 μM<EC99≤100 μM)”. In assay [2], the “EC99, combinational effect with AMK” value is recorded as “B (25 μM<EC99≤100 μM)” and the “EC99, combinational effect with GM” value is “B (25 μM<EC99≤100 μM)”.

`CCSc1cc(F)ccc1CN1CCN(C(=O)[C@H](N)C2CCN(CCc3cc(Cl)ccc3-c3cccc(NC)c3)CC2)CC1` [Example 607, Hydrochloride of (R)-2-amino-2-(1-(2-(4-chloro-3′-(methylamino)-[1,1-biphenyl]-2-yl)ethyl)piperidin-4-yl)-1-(4-(2-(ethylthio)-4-fluorobenzyl)piperazin-1-yl)ethan-1-one]: in assay [1], the “EC99 … with AZT, mexB (PA)” value was “S (EC99≤12.5 μM)”; the “EC99 … with LVFX, mexB (PA)” value was “S (EC99≤12.5 μM)”; the “EC99 … with TC, mexB (PA)” value is “S (EC99≤12.5 μM)”. For the same compound, in assay [2], the “EC99, combinational effect with AMK” value is “B (25 μM<EC99≤100 μM)” and the “EC99, combinational effect with GM” value was “B (25 μM<EC99≤100 μM)”.

For `N[C@@H](C(=O)N1CCN(Cc2c(F)cccc2N2CCCC2)CC1)C1CCN(CCc2cc(Cl)ccc2-c2ccccc2)CC1` [Example 517, Hydrobromide of (R)-2-amino-2-(1-(2-(4-chloro-[1,1-biphenyl]-2-yl)ethyl)piperidin-4-yl)-1-(4-(2-fluoro-6-(pyrrolidin-1-yl)benzyl)piperazin-1-yl)ethan-1-one], in assay [1], the “EC99 … with AZT, mexB (PA)” value is on record as “B (25 μM<EC99≤100 μM)”; the “EC99 … with LVFX, mexB (PA)” value is given as “C (100 μM<EC99)”; the “EC99 … with TC, mexB (PA)” value was “B (25 μM<EC99≤100 μM)”. Further, in assay [2], the “EC99, combinational effect with AMK” value is on record as “B (25 μM<EC99≤100 μM)” and the “EC99, combinational effect with GM” value is recorded as “B (25 μM<EC99≤100 μM)”.

Consider `CCOc1cccc(F)c1CN1CCN(C(=O)[C@H](N)C2CCN(CCn3ccc4ccccc43)CC2)CC1` [Example 159, Hydrobromide of (R)-2-(1-(2-(1H-indol-1-yl)ethyl)piperidin-4-yl)-2-amino-1-(4-(2-ethoxy-6-fluorobenzyl)piperazin-1-yl)ethan-1-one], for which, in assay [1], the “EC99, mexB (PA), AZT” value was “C (100 μM<EC99)”; the “EC99, mexB (PA), LVFX” value is “C (100 μM<EC99)”; the “EC99, mexB (PA), TC” value is “C (100 μM<EC99)”. Further, in assay [2], the “EC99, S-3769 strain, AMK” value is recorded as “B (25 μM<EC99≤100 μM)” and the “EC99, S-3769 strain, GM” value is listed as “C (100 μM<EC99)”.

Take `CCOc1cccc(F)c1CN1CCN(C(=O)[C@H](N)C2CCN(CCc3csc4ccccc34)CC2)CC1` [Example 150, Hydrobromide of (R)-2-amino-2-(1-(2-(benzo[b]thiophen-3-yl)ethyl)piperidin-4-yl)-1-(4-(2-ethoxy-6-fluorobenzyl)piperazin-1-yl)ethan-1-one]: in assay [1], the “EC99, mexB (PA), AZT” value is “B (25 μM<EC99≤100 μM)”; the “EC99, mexB (PA), LVFX” value is listed as “C (100 μM<EC99)”; the “EC99, mexB (PA), TC” value is reported as “B (25 μM<EC99≤100 μM)”. In assay [2], the “EC99, S-3769 strain, AMK” value is listed as “S (EC99≤12.5 μM)” and the “EC99, S-3769 strain, GM” value is given as “S (EC99≤12.5 μM)”.

Regarding `CCOc1cccc(F)c1CN1CCN(C(=O)[C@H](N)C2CCN(CCc3cc(Cl)ccc3-c3ccoc3)CC2)CC1` [Example 547, Hydrobromide of (R)-2-amino-2-(1-(5-chloro-2-(furan-3-yl)phenethyl)piperidin-4-yl)-1-(4-(2-ethoxy-6-fluorobenzyl)piperazin-1-yl)ethan-1-one], in assay [1], the “EC99 … with AZT, mexB (PA)” value was “B (25 μM<EC99≤100 μM)”; the “EC99 … with LVFX, mexB (PA)” value was “B (25 μM<EC99≤100 μM)”; the “EC99 … with TC, mexB (PA)” value is reported as “C (100 μM<EC99)”. In assay [2], the “EC99, combinational effect with AMK” value is “S (EC99≤12.5 μM)” and the “EC99, combinational effect with GM” value is given as “S (EC99≤12.5 μM)”.

Take `Cc1ccsc1CN1CCN(C(=O)[C@H](N)C2CCN(CCc3cc(Cl)ccc3-c3ccccc3)CC2)CC1` [Example 516, Hydrobromide of (R)-2-amino-2-(1-(2-(4-chloro-[1,1-biphenyl]-2-yl)ethyl)piperidin-4-yl)-1-(4-((3-methylthiophen-2-yl)methyl)piperazin-1-yl)ethan-1-one]: in assay [1], the “EC99 … with AZT, mexB (PA)” value is given as “B (25 μM<EC99≤100 μM)”; the “EC99 … with LVFX, mexB (PA)” value was “B (25 μM<EC99≤100 μM)”; the “EC99 … with TC, mexB (PA)” value is “B (25 μM<EC99≤100 μM)”. For the same compound, in assay [2], the “EC99, combinational effect with AMK” value is reported as “B (25 μM<EC99≤100 μM)” and the “EC99, combinational effect with GM” value is on record as “B (25 μM<EC99≤100 μM)”.
